# Laboratory results reported in patent US20040072368A1, “Lipoprotein receptor” (priority 2002, published 2004).
# What was measured:
# [1] = system: HepG2 cells; assay: TG-HDL2 internalisation assay; format: cell-based, human; conditions: for effect on internalisation of 125I-TG-HDL2: 75 μg/ml 125I-TG-HDL2, 10 min at 37° C., 10 μg/ml free-apoA-I, 100 nM ADP, 100 nM ATP, 0.2 U/ml apyrase, 100 nM EGF
# Method: (§1) Panel 1, 2 and 3. TG-HDL2 and LDL internalization by HepG2 cells. Cells are incubated for 10 min at 37° C. with 75 μg/ml of ^125I-TG-HDL2 (panels 1 and 3), TG-HDL2 labelled with ^3H-cholesteryl ester (panel 1 “chol”) or ^1251-LDL (panel 2). Alternatively, 10 μg/ml free-apoA-I (A, G), 100 nM ADP (B, H), both free-apoA-I and ADP at the same concentrations as above (C), 100 nM ATP (D), 0.2 U/ml apyrase (E), 100 nM EGF (F), or increasing concentrations of 2MeS-ADP (▪) and ATPγS (□) (panel 3) are added to the incubation medium. Results are expressed as the percentage of stimulation related to the value of internalisation obtained without addition of any compound (corresponding to a value of 400 ng TG-HDL2/mg of cell protein). The same experiments are performed on IHH cells with similar results (data not shown).
# HepG2 cells are incubated for 10 min at 37° C. in DMEM pH 6.6 with 75 μg/ml of ^125I-TGHDL 2 and in the presence of increasing concentrations of IF, without (panel A) or with (panel B) free-apoA-I (10 μg/ml). Results are expressed as the percentage of stimulation as referred to the value of internalisation obtained without addition of any compound (corresponding to a value of 400 ng TG-HDL2/mg of cell protein).
# Cells are washed three times and pre-incubated for 30 min at 37° C. in serum free DMEM. ^125I triglyceride rich-HDL2 (75 μg/ml) are added on the cells and incubated at 37° C. for various time. Depending on the experiment, free apolipoprotein A-I (10 μg/ml) or other compounds, are added to the incubation medium. At each incubation time, cells are washed with cold DMEM and the release of radioactive ligands associated to the cell surface is performed at 4° C., for 90 min in DMEM. The radioactivity internalised into the cells and the protein content is determined as in the competition assays. Non-specific internalisation is analysed in the presence of an excess of 600 μg/ml of HDL3. Results are expressed as the percentage of stimulation related to the value of internalisation obtained without addition of any compound. The same method is used for the measurement of LDL internalisation.
# [2] = system: HepG2 cells; assay: LDL internalisation assay; format: cell-based, human; conditions: 10 μg/ml free-apoA-I or 100 nM ADP, 10 min at 37° C.
# Method: as §1
# Cells are washed three times and pre-incubated for 30 min at 37° C. in serum free DMEM. ^125I triglyceride rich-HDL2 (75 μg/ml) are added on the cells and incubated at 37° C. for various time. […] The radioactivity internalised into the cells and the protein content is determined as in the competition assays. Non-specific internalisation is analysed in the presence of an excess of 600 μg/ml of HDL3. Results are expressed as the percentage of stimulation related to the value of internalisation obtained without addition of any compound. […]
# [3] = system: EGF receptor; assay: EGF receptor internalisation by flow cytometry; format: cell-based, human; conditions: HepG2, 10 min pre-incubation, 10 μg/ml free-apoA-I or 100 nM ADP
# Method: Panel 4. Internalisation of EGF receptor by HepG2 cells. Cells are pre-incubated for 10 min in serum-free medium with (J) or without (K) […] EGF, or with 10 μg/ml free-apoA-I (L), 100 nM ADP (M). The amount of EGF receptor is measured by Flow Cytometry using anti-EGF receptor antibody. As a control experiment for the efficacy of EGF receptor antibody, isotypic IgG are used (I). Results are expressed as the mean relative cell fluorescence and receptor internalisation is related to lower fluorescence.
# (§2) For analysis of the cell surface EGF receptor, HepG2 cells are preincubated in medium with or without 20 nM EGF for 10 min at 37° C. For flow cytometry analysis, HepG2 and CHO cells are detached by incubation with Ca2+, Mg2+free PBS containing 2 mM EDTA, pH 7.4, fixed in 3% paraformaldehyde and pelleted in a microfuge. Cells are incubated at 20° C. for 1 h in PBS, pH 7.4 containing 1% BSA with either mouse monoclonal antibodies against the human β-subunit of ATP synthase, the human cytochrome oxidase subunit I, the human EGF receptor or against isotypic control IgG. Cells are washed in PBS/BSA 1% and incubated at 20° C. for 30 min with goat anti-rabbit IgG conjugated to fluorescein isothiocyanate. After a final wash, cells are pelleted and resuspended in PBS/BSA 1% at a density of 1×10^6 cells/ml. The mean relative fluorescence after excitation at a wavelength of 488 nm is determined for each sample on a Coulter XL 4C flow cytometer and analysed with CELLQUEST software (Becton-Dickenson).
# [4] = system: HepG2 cells and IHH; assay: Cholesterol efflux; format: cell-based, human; conditions: for influence on cholesterol efflux: range of 1 nM to 10 μM
# [5] = target: T1, cell surface ATP synthase (Homo sapiens, UniProt P06576); assay: Cell surface ADP generation assay (ATP hydrolysis), HPLC/TLC; format: cell-based; conditions: HepG2
# T1 construct: endogenous in cells; host or cells: HepG2
# T1 sequence (P06576 48-529): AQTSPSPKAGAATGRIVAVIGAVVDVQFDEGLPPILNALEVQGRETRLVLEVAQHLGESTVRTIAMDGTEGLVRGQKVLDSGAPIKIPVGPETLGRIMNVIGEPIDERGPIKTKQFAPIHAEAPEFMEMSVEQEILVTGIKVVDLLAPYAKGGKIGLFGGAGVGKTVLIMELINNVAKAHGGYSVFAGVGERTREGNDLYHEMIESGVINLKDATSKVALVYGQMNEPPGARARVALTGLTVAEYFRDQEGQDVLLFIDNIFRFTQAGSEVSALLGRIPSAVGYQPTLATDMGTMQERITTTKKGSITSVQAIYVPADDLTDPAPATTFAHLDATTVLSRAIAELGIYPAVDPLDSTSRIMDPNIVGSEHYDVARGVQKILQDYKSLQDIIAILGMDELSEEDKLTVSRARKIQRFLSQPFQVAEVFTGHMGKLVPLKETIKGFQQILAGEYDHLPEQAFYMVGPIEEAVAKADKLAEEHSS
# T1 sequence (P25705 44-553 partner): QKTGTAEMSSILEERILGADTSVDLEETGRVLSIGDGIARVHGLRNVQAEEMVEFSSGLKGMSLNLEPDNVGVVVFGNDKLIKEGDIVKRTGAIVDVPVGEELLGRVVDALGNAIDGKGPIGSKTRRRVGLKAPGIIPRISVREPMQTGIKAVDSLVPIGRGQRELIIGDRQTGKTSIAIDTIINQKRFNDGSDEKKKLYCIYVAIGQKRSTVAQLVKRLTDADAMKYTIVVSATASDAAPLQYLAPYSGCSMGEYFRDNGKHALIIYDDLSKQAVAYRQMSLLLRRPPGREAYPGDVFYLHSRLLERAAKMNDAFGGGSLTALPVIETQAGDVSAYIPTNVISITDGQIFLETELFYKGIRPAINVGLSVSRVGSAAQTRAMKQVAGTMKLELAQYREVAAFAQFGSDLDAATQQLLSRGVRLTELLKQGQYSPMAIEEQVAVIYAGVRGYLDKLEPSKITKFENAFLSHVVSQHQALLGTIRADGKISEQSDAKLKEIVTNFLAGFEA
# T1 sequence (P36542 26-298 partner): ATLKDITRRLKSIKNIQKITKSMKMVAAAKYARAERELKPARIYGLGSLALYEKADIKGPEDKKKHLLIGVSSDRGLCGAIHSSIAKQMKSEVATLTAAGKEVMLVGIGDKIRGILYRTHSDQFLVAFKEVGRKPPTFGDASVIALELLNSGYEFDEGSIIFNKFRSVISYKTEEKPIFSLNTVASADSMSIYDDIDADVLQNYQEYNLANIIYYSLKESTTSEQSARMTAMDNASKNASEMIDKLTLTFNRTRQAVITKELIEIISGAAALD
# T1 sequence (P30049 23-168 partner): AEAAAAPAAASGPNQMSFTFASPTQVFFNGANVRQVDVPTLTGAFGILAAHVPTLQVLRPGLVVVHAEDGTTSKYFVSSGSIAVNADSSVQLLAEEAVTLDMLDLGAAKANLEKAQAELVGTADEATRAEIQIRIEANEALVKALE
# T1 sequence (P56381 2-51 partner limits assumed): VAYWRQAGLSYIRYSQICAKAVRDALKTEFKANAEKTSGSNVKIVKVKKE
# Method: (§3) ^32Pi and ADP (panels A and B) or [α-32P] ATP (panels C, D, E and F) are added to the HepG2 cell medium as described in Experimental Procedures, and the cells are incubated for 10 min at 37° C. with 10 μg/ml apoA-I (panels B and D), 100 nM IF1 (panel E), or both IF1 […] and apoA-I at the same concentrations as above (panel F). Control experiments are performed with neither apo AI nor IF1 added into the cell medium (panel A and C). Supernatants are recovered and analysed by HPLCs.
# (§4) Confluent HepG2 in 6-well plates are washed in DMEM, then incubated at 37° C. for 10 min in DMEM pH 6.6 with 0.1 μCi [α-32P] ATP for ADP generation assay, or with 0.1 μCi 32Pi and ADP (100 nM final) for ATP generation assay. Depending on the experiment, IF1 (100 nM final) or apoA-I (10 μg/ml final) are added in the reaction mixture. Supernatants are removed and analysed using two different systems: 1) by HPLC coupled to a radioactivity detector on a Whatman Partisphere 5 SAX column (Whatman International Ltd., UK) as described previously (13); calibration is done with radiolabelled nucleotides. 2) by thin layer chromatography in the solvent NaCl 2.4%/NH4OH/H2O/MeOH (12.5/15/27.5/50, v/v); radioactive spots are counted by liquid scintillation.
# [6] = system: rat liver; assay: TG-HDL2 internalisation by perfused rat liver (in situ); format: in vivo
# Method: The liver from male Whistar rats (7-8 weeks old) were perfused in situ during 45 minutes at 37° C. in Ringer medium (pH 6.8) with 35 μg/ml of 1251-TG-HDL2 with or without 1 μM IF1. Livers were then extensively washed at 4° C. and radioactivity counted. n=7 per group. Values represent means±SEM, with p<0.02 (unpaired t-test). Control fluorescence-assisted flow cytometry experiments have shown the presence of both the Band a-chain ATP synthase at the cell surface of isolated rat hepatocytes (not shown).
# [7] = target: T2, β-subunit of ATP synthase (Homo sapiens, UniProt P06576); assay: Flow cytometry detection of cell surface β-subunit of ATP synthase; format: cell-based; conditions: excess of free-apoA-I (100 nM), HepG2 cells
# T2 construct: endogenous in cells; host or cells: HepG2 (ATCC)
# T2 sequence (P06576 48-529): as the sequence (P06576 48-529) above
# T2 sequence (P25705 44-553 partner): as the sequence (P25705 44-553 partner) above
# T2 sequence (P36542 26-298 partner): as the sequence (P36542 26-298 partner) above
# T2 sequence (P30049 23-168 partner): as the sequence (P30049 23-168 partner) above
# T2 sequence (P56381 2-51 partner limits assumed): as the sequence (P56381 2-51 partner limits assumed) above
# Method: HepG2 and CHO cells were analyzed by fluorescence-assisted flow cytometry. Plots are shown for HepG2 (panel A) and CHO (panel C) where solid lines represent cells incubated with an anti b-subunit of ATP synthase mouse monoclonal IgG2a in absence (e) or presence (d) of 100 nM apoA-I, 250 μg/ml of FI-ATPase (c) or incubated with an isotypic control mouse IgG2a (a) and […] anti cytochrome oxidase subunit I mouse monoclonal IgG2a (b, dashed lines). In panel B and D, the histograms are expressed as the mean relative fluorescence of the curves a to e on HepG2 (B) or CHO cells (D).
# as §2, with “Cells are washed in PBS/BSA 1% and incubated at 20° C. for 30 min with goat anti-rabbit IgG conjugated to fluorescein isothiocyanate. After a final wash, cells are pelleted and resuspended in PBS/BSA 1% at a density of 1×10^6 cells/ml.” left out
# [8] = system: HepG2 cells; assay: Competitive inhibition of binding of 125I-labeled apoA-I to HepG2 cells; parameters: species or system human; conditions: 1 μg/ml 125I-apoA-I, no competitor, 2 h at 4° C.
# Method: HepG2 cells (panel A) and submitochondrial particles (panel B) are incubated for 2 h at 4° C. in the presence of 1 μg/ml ^125I-labeled apoA-1 and 5 μg/ml ^125I-labeled HDL3 respectively, in the presence of increasing concentrations of either unlabeled apoA-I (◯, panel A), unlabeled HDL3 (●, panel B), anti β-subunit of ATP synthase mouse monoclonal IgG2a (□) or purified isotype mouse IgG2a (♦). The 100% specific binding corresponds to 25,5 ng apoA-I bound per mg of cell proteins (panel A) and 2050 ng HDL3 protein bound per mg of mitochondrial proteins (panel B). Fab fragments from anti-β-subunit of ATP synthase are also used as competitors and results are identical to anti β-subunit IgG2a (data not shown). The results are representative of three independent series of experiments.
# The competition experiments are performed at 4° C. for 2 h as previously described (6). […] Cells are washed twice with ice-cold PBS (maximum washing time is 15 s), lysed with 500 μl of 0.1 N NaOH, and the NaOH digest is used for radioactivity measurement and protein determination. […] Filters are used for radioactivity measurements. […] Data are expressed as the percentage of the specific binding measured in the absence of competitor versus the log of competitor concentration (in nM).
# [9] = target: T1, cell surface ATP synthase; assay: Cell surface ATP generation assay (ATP synthesis), HPLC/TLC; format: cell-based; conditions: 10 μg/ml free-apoA-I, 10 min, HepG2
# Method: as §3, §4
compound,measurement,setting,value
CSc1nc(N)c2ncn([C@@H]3O[C@H](COP(=O)(O)OP(=O)(O)O)[C@@H](O)[C@H]3O)c2n1 [2MeS-ADP],effect on TG-HDL2 endocytosis,[1]; 2MeS-ADP at 10 to 100 nM,stimulatory effect
same,effect on TG-HDL2 endocytosis,[1]; 2MeS-ADP at higher concentrations (1 μM to 10 μM),inhibition of endocytosis
"Nc1ncnc2c1ncn2[C@@H]1O[C@H](COP(=O)(O)OP(=O)(O)O)[C@@H](O)[C@H]1O [ADP, reference compound]",effect on internalisation of 125I-TG-HDL2,[1],stimulates
same,stimulation of endocytosis of 125I-labeled LDL,[2],no stimulation
same,number of EGF-R at the cell surface,[3],neither free apoA-I (FIG. 6-4L) nor ADP (FIG. 6-4M) are able to reduce
same,influence on cholesterol efflux,[4],no influence
Nc1ncnc2c1ncn2[C@@H]1O[C@H](COP(=O)(O)OP(=O)(O)OP(=O)(O)O)[C@@H](O)[C@H]1O [ATP],effect on internalisation of 125I-TG-HDL2,[1],small stimulation
Nc1ncnc2c1ncn2[C@@H]1O[C@H](COP(=O)(O)OP(=O)(O)OP(O)(O)=S)[C@@H](O)[C@H]1O [ATPγS],stimulation of TG-HDL2 endocytosis,[1]; ATPγS at 10 μM,15%
same,effect on TG-HDL2 endocytosis,[1]; ATPγS at low concentrations,weak effect
"EGF: known to induce endocytosis of the EGF receptor (NSDSECPLSHDGYCLHDGVCMYIEALDKYACNCVVGYIGERCQYRDLKWWELR; Epidermal growth factor; UniProt P01133 971-1023, looked up)",effect on internalisation of 125I-TG-HDL2,[1],does not stimulate
same,number of EGF-R at the cell surface,[3],strongly reduces
"IF1: natural inhibitor protein of mitochondrial F1-ATPase, inhibits the hydrolytic activity of the ATP synthase",decrease of [α-32P]-ADP generated as compared to control,"[5]; 100 nM IF1, 10 min at 37° C.",48%
same,effect on the free-apoA-I stimulation of ATP hydrolysis,"[5]; 100 nM IF1 plus 10 μg/ml apoA-I, 10 min at 37° C.",could inhibit the stimulatory effect
same,effect on stimulation of TG-HDL2 endocytosis by free-apoA-I,"[1]; higher concentrations of IF1, with free-apoA-I 10 μg/ml, DMEM pH 6.6",completely abolish
same,effect on TG-HDL2 internalisation (HDL endocytosis),"[1]; increasing concentrations of IF1, without free-apoA-I, DMEM pH 6.6, 10 min at 37° C.",dramatic decrease
same,influence on cholesterol efflux,[4],no influence
same,TG-HDL2 internalisation by perfused rat liver,"[6]; 1 μM IF1, 35 μg/ml 125I-TG-HDL2, 45 minutes at 37° C., means±SEM, n=7",2.597 ± 1.026 μgTG-HDL2/g of liver
same,decrease of TG-HDL2 internalisation by the liver,"[6]; perfused rat liver, 45 min, 1 μM IF1",up to 45%
apyrase,effect on internalisation of 125I-TG-HDL2,[1],completely abolishes
"free-apoA-I: major apoprotein of HDL, single polypeptide chain of 243 amino acid residues, isolated from HDL3 by ion-exchange chromatography",reduction of immunoreactivity of the anti β-subunit antibody,[7],more than 3 fold
same,100% specific binding,[8],"25,5 ng apoA-I bound per mg of cell proteins"
same,increase of [α32P]-ADP generated from [α-32P]-ATP,"[5]; 10 μg/ml apoA-I, 10 min at 37° C.",up to 79%
same,ATP synthesis from ADP plus 32Pi,[9],no synthesis of ATP is detected
same,radioactivity internalised into the cells (125I-labeled TG-HDL2),"[1]; increasing free-apoA-I from 0.1 to 20 μg/ml, HepG2 or IHH cells, preliminary experiment",increased
same,stimulation of endocytosis of 125I-labeled LDL,[2],no stimulation
same,number of EGF-R at the cell surface,[3],neither free apoA-I (FIG. 6-4L) nor ADP (FIG. 6-4M) are able to reduce
same,stimulation of the cholesterol efflux,[4]; free-apoA-I,2 to 2.5 fold
